# *1 amine or outer side, *2 acyl side, *3 side chain or, on linkers, in order; H or OH if unused. Where a SMILES comes first, the peptide text is derived from it. Bridges are numbered along the chain shown (N, C = ends). [ ]: non-standard residue; d: D form. Phe(4-tBu) = CC(C)(C)c1ccc(C[C@H](N)C(=O)O)cc1; Bip = N[C@@H](Cc1ccc(-c2ccccc2)cc1)C(=O)O; NMeR = CN[C@@H](CCCNC(=N)N)C(=O)O; β3hE = N[C@@H](CCC(=O)O)CC(=O)O; X1 = O=C(c1ccccc1C[*:2])[*:1]; Pen = CC(C)(S)[C@H](N)C(=O)O
# Target: T1, RPMI 8866 cells (Homo sapiens, UniProt P13612+P26010)
# T1 sequence (P13612 34-1032): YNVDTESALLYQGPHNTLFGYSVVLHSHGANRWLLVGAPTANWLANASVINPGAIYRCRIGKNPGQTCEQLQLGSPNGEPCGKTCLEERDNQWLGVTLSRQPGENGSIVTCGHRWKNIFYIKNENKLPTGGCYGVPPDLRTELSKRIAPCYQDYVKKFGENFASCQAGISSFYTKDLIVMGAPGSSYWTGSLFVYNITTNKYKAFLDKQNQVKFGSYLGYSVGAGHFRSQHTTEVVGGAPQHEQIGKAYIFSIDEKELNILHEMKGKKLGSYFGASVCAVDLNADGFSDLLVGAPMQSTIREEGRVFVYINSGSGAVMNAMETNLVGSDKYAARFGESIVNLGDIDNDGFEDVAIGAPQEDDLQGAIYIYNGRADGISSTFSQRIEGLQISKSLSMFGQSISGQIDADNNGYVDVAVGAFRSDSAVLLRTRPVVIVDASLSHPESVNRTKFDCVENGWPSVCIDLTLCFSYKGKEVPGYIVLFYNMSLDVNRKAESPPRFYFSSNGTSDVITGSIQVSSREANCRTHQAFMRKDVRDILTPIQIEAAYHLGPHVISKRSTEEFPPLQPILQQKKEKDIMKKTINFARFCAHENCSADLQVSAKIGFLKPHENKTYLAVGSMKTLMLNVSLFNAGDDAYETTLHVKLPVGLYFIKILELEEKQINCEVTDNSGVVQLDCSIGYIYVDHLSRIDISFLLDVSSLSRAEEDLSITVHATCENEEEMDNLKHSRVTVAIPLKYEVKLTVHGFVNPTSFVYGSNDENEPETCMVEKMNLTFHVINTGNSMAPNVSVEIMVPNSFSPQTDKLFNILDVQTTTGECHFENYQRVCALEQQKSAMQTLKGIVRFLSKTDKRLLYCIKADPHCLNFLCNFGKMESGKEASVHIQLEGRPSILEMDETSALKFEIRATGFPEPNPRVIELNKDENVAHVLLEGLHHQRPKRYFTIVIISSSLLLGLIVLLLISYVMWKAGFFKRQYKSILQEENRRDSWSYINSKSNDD
# T1 sequence (P26010 20-798): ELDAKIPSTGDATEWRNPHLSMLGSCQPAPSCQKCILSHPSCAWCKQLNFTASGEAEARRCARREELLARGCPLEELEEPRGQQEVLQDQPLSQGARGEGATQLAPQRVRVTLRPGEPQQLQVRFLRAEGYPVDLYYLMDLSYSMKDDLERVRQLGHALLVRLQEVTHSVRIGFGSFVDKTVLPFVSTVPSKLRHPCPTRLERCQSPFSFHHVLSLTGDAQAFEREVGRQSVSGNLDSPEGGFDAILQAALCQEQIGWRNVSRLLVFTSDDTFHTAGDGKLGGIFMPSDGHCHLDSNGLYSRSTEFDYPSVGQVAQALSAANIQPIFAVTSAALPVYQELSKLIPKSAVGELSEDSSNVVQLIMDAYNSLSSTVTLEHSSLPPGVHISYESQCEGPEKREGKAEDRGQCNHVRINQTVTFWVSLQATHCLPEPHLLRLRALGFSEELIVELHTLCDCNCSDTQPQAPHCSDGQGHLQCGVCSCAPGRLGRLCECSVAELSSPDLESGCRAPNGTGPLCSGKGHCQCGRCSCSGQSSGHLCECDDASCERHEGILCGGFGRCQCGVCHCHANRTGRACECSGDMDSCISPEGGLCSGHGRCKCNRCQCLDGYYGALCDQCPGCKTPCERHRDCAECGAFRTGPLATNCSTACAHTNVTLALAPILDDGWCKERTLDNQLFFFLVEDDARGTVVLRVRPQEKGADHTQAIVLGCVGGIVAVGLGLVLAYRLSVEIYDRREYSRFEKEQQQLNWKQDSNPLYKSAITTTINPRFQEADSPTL
# Experiment: α4β7-MAdCAM Cell Adhesion Assay
# Assay type: cell-based
# Settings: thioether monomer peptides, Table 6; read-out: Cell-Adhesion A4B7
# In short: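 Peptide inhibition of adhesion measured with MAdCAM-1/Fc chimera immobilised at 200 ng/well and MnCl2-activated (1 mM) RPMI 8866 cells, 30-45 min at 37° C. Adherent cells remaining after three washes detected by MTT reduction at 570 nm, corrected for no-cell wells, giving dose response.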
row,SMILES,IC50
1,"CC(C)C[C@@H]1NC(=O)[C@H]([C@@H](C)O)NC(=O)[C@H](CC(=O)O)NC(=O)[C@H](CO)NC(=O)[C@H](CCCNC(=N)N)N(C)C(=O)c2ccccc2CSC(C)(C)[C@@H](C(=O)N[C@@H](Cc2c[nH]c3ccccc23)C(=O)N[C@H](CCC(=O)O)C(=O)N[C@@H](CO)C(N)=O)NC1=O [compound 100] (HELM PEPTIDE1{[meR].S.D.T.L.[Pen].W.[dE].S.[am]}|CHEM1{[O=C(c1ccccc1C[*:2])[*:1]]}$PEPTIDE1,CHEM1,1:R1-1:R1|PEPTIDE1,CHEM1,6:R3-1:R2$$$V2.0)",25 to 100 nM
2,"CC(C)C[C@@H]1NC(=O)[C@H]([C@@H](C)O)NC(=O)[C@H](CC(=O)O)NC(=O)[C@H](CO)NC(=O)[C@H](CCCNC(=N)N)N(C)C(=O)c2ccccc2CSC(C)(C)[C@@H](C(=O)N[C@@H](Cc2c[nH]c3ccccc23)C(=O)N[C@H](CCC(=O)O)C(=O)N[C@@H](Cc2ccccc2)C(N)=O)NC1=O [compound 101] (HELM PEPTIDE1{[meR].S.D.T.L.[Pen].W.[dE].F.[am]}|CHEM1{[O=C(c1ccccc1C[*:2])[*:1]]}$PEPTIDE1,CHEM1,1:R1-1:R1|PEPTIDE1,CHEM1,6:R3-1:R2$$$V2.0)",100 to 1000 nM
3,"CC(C)C[C@@H]1NC(=O)[C@H]([C@@H](C)O)NC(=O)[C@H](CC(=O)O)NC(=O)[C@H](CO)NC(=O)[C@H](CCCNC(=N)N)N(C)C(=O)c2ccccc2CSC(C)(C)[C@@H](C(=O)N[C@@H](Cc2c[nH]c3ccccc23)C(=O)N[C@H](CCC(=O)O)C(=O)N[C@@H](Cc2c[nH]cn2)C(N)=O)NC1=O [compound 102] (HELM PEPTIDE1{[meR].S.D.T.L.[Pen].W.[dE].H.[am]}|CHEM1{[O=C(c1ccccc1C[*:2])[*:1]]}$PEPTIDE1,CHEM1,1:R1-1:R1|PEPTIDE1,CHEM1,6:R3-1:R2$$$V2.0)",25 to 100 nM
4,"CC(C)C[C@@H]1NC(=O)[C@H]([C@@H](C)O)NC(=O)[C@H](CC(=O)O)NC(=O)[C@H](CO)NC(=O)[C@H](CCCNC(=N)N)N(C)C(=O)c2ccccc2CSC(C)(C)[C@@H](C(=O)N[C@@H](Cc2c[nH]c3ccccc23)C(=O)N[C@H](CCC(=O)O)C(=O)N[C@@H](Cc2ccc(O)cc2)C(N)=O)NC1=O [compound 104] (HELM PEPTIDE1{[meR].S.D.T.L.[Pen].W.[dE].Y.[am]}|CHEM1{[O=C(c1ccccc1C[*:2])[*:1]]}$PEPTIDE1,CHEM1,1:R1-1:R1|PEPTIDE1,CHEM1,6:R3-1:R2$$$V2.0)",25 to 100 nM
5,"CC(C)C[C@@H]1NC(=O)[C@H]([C@@H](C)O)NC(=O)[C@H](CC(=O)O)NC(=O)[C@H](CO)NC(=O)[C@H](CCCNC(=N)N)N(C)C(=O)c2ccccc2CSC(C)(C)[C@@H](C(=O)N[C@@H](Cc2c[nH]c3ccccc23)C(=O)N[C@H](CCC(=O)O)C(=O)N[C@H](CO)C(N)=O)NC1=O [compound 106] (HELM PEPTIDE1{[meR].S.D.T.L.[Pen].W.[dE].[dS].[am]}|CHEM1{[O=C(c1ccccc1C[*:2])[*:1]]}$PEPTIDE1,CHEM1,1:R1-1:R1|PEPTIDE1,CHEM1,6:R3-1:R2$$$V2.0)",25 to 100 nM
6,"CC(C)C[C@@H]1NC(=O)[C@H]([C@@H](C)O)NC(=O)[C@H](CC(=O)O)NC(=O)[C@H](CO)NC(=O)[C@H](CCCNC(=N)N)N(C)C(=O)c2ccccc2CSC(C)(C)[C@@H](C(=O)N[C@@H](Cc2c[nH]c3ccccc23)C(=O)N[C@H](CCC(=O)O)C(=O)N[C@H](Cc2ccccc2)C(N)=O)NC1=O [compound 107] (HELM PEPTIDE1{[meR].S.D.T.L.[Pen].W.[dE].[dF].[am]}|CHEM1{[O=C(c1ccccc1C[*:2])[*:1]]}$PEPTIDE1,CHEM1,1:R1-1:R1|PEPTIDE1,CHEM1,6:R3-1:R2$$$V2.0)",25 to 100 nM
7,"CC(C)C[C@@H]1NC(=O)[C@H]([C@@H](C)O)NC(=O)[C@H](CC(=O)O)NC(=O)[C@H](CO)NC(=O)[C@H](CCCNC(=N)N)N(C)C(=O)c2ccccc2CSC(C)(C)[C@@H](C(=O)N[C@@H](Cc2c[nH]c3ccccc23)C(=O)N[C@H](CCC(=O)O)C(=O)N[C@H](CCC(=O)O)C(N)=O)NC1=O [compound 108] (HELM PEPTIDE1{[meR].S.D.T.L.[Pen].W.[dE].[dE].[am]}|CHEM1{[O=C(c1ccccc1C[*:2])[*:1]]}$PEPTIDE1,CHEM1,1:R1-1:R1|PEPTIDE1,CHEM1,6:R3-1:R2$$$V2.0)",25 to 100 nM
8,"CC(C)C[C@@H]1NC(=O)[C@H]([C@@H](C)O)NC(=O)[C@H](CC(=O)O)NC(=O)[C@H](CO)NC(=O)[C@H](CCCNC(=N)N)N(C)C(=O)c2ccccc2CSC(C)(C)[C@@H](C(=O)N[C@@H](Cc2c[nH]c3ccccc23)C(=O)N[C@H](CCC(=O)O)C(=O)N[C@H](Cc2ccc(O)cc2)C(N)=O)NC1=O [compound 110] (HELM PEPTIDE1{[meR].S.D.T.L.[Pen].W.[dE].[dY].[am]}|CHEM1{[O=C(c1ccccc1C[*:2])[*:1]]}$PEPTIDE1,CHEM1,1:R1-1:R1|PEPTIDE1,CHEM1,6:R3-1:R2$$$V2.0)",25 to 100 nM
9,"CC(C)C[C@@H]1NC(=O)[C@H]([C@@H](C)O)NC(=O)[C@H](CC(=O)O)NC(=O)[C@H](CO)NC(=O)[C@H](CCCNC(=N)N)N(C)C(=O)c2ccccc2CSC(C)(C)[C@@H](C(=O)N[C@@H](Cc2c[nH]c3ccccc23)C(=O)N[C@H](CCC(=O)O)C(=O)N[C@@H](CCC(=O)O)C(N)=O)NC1=O [compound 113] (HELM PEPTIDE1{[meR].S.D.T.L.[Pen].W.[dE].E.[am]}|CHEM1{[O=C(c1ccccc1C[*:2])[*:1]]}$PEPTIDE1,CHEM1,1:R1-1:R1|PEPTIDE1,CHEM1,6:R3-1:R2$$$V2.0)",25 to 100 nM
10,"CC(C)C[C@@H]1NC(=O)[C@H]([C@@H](C)O)NC(=O)[C@H](CC(=O)O)NC(=O)[C@H](CO)NC(=O)[C@H](CCCNC(=N)N)N(C)C(=O)c2ccccc2CSC(C)(C)[C@@H](C(=O)N[C@@H](Cc2ccc3ccccc3c2)C(=O)N[C@H](CCC(=O)O)C(N)=O)NC1=O [compound 114] (HELM PEPTIDE1{[meR].S.D.T.L.[Pen].[O=C([C@H](Cc1ccc2ccccc2c1)N[*:1])[*:2]].[dE].[am]}|CHEM1{[O=C(c1ccccc1C[*:2])[*:1]]}$PEPTIDE1,CHEM1,1:R1-1:R1|PEPTIDE1,CHEM1,6:R3-1:R2$$$V2.0)",25 to 100 nM
11,"CC(C)C[C@@H]1NC(=O)[C@H]([C@@H](C)O)NC(=O)[C@H](CC(=O)O)NC(=O)[C@H](CO)NC(=O)[C@H](CCCNC(=N)N)N(C)C(=O)c2ccccc2CSC(C)(C)[C@@H](C(=O)N[C@@H](Cc2ccc3ccccc3c2)C(N)=O)NC1=O [compound 116] (HELM PEPTIDE1{[meR].S.D.T.L.[Pen].[O=C([C@H](Cc1ccc2ccccc2c1)N[*:1])[*:2]].[am]}|CHEM1{[O=C(c1ccccc1C[*:2])[*:1]]}$PEPTIDE1,CHEM1,1:R1-1:R1|PEPTIDE1,CHEM1,6:R3-1:R2$$$V2.0)",25 to 100 nM
12,CC(C)C[C@@H]1NC(=O)[C@H]([C@@H](C)O)NC(=O)[C@H](CC(=O)O)NC(=O)[C@H](CO)NC(=O)[C@H](CCCNC(=N)N)N(C)C(=O)c2ccccc2CSC(C)(C)[C@@H](C(=O)N[C@@H](Cc2ccc(-c3ccccc3)cc2)C(=O)N[C@@H](CCC(=O)O)CC(N)=O)NC1=O [compound 133] ([NMeR]SDTL[Pen][Bip][β3hE]-NH2; linker N-6 via X1),< 25 nM
13,CC(C)C[C@@H]1NC(=O)[C@H]([C@@H](C)O)NC(=O)[C@H](CC(=O)O)NC(=O)[C@H](CO)NC(=O)[C@H](CCCNC(=N)N)N(C)C(=O)c2ccccc2CSC(C)(C)[C@@H](C(=O)N[C@@H](Cc2ccc(C(C)(C)C)cc2)C(=O)N[C@@H](CCC(=O)O)CC(N)=O)NC1=O [compound 134] ([NMeR]SDTL[Pen][Phe(4-tBu)][β3hE]-NH2; linker N-6 via X1),< 25 nM

# From patent US20260217767A1, “NOVEL A4B7 THIOETHER PEPTIDE DIMER ANTAGONISTS” (Protagonist Therapeutics, Inc., priority 2014, published 2026)
